For one test, the system named is Type I procollagen. The test can be described thus: Western blot of type I procollagen / soluble type I collagen in fibroblast cultures after 72 hours of treatment. It counts as cell-based, human. Particulars: fibroblasts, peptide 20 mM, no FBS, compared with TGF-β1, SA1III, Peptide 1, Peptide 2 (FIG. 1). The text has this: Neonatal human dermal fibroblasts (NHDF) have been obtained from Lonza. Cultures of adult dermal fibroblasts have been prepared from cutaneous skin biopsies of healthy donors having different ages, as described in Pani et al. J. Alzheimer's Dis. (2009) 18:829-41, C6 ([…]), C3 (person) and C12 (person). A written informed consent to use these dermal cells was obtained from all the donor subjects involved, according to the Guidelines indicated by the Ethics Committee of the Careggi University Hospital (Florence, Italy) and by the Helsinki Declaration of 1975, as reviewed in the 1983. All cell cultures have been subjected to a similar number of steps, from 6 to 9, at the beginning of the experiments, and were preserved in the modified Dulbecco Eagle culture medium (DMEM, Lonza) added with FBS 10% (Gibco), 100 units/ml of penicillin G, 0.05 mg/ml of streptomycin and glutamine 2 mM (PAN-Biotech GmbH), at 37° C. in a humidified incubator containing 5% of CO2.
The cells were seeded in 12-wells plates (30000 cells per well) and treated the day after with the peptide AAT11RI (20 mM). […]
All treatments have been carried out in the absence of FBS to avoid interferences in the electrophoretic migration. […] The protein content in the lysates was measured using the Bio-Rad DC protein assay kit. […]
A general note: Immunoblotting shows a protein as a band on a membrane.

The test system of a further test is extracellular collagen. Particulars: fibroblasts obtained from subjects of various ages; cited from earlier work.

Non-standard residues stand in square brackets, D forms with d.

The text below walks through data of patent US20260008811A1, “BIOACTIVE PEPTIDES AND COMPOSITIONS COMPRISING THEM” (ESPIKEM S.R.L., priority 2019, published 2026).

For the substance “Ac-DAsn-DVal-DVal-DLys-NH2 (Ac-[dN][dV][dV][dK]-NH2) [AAT11RI]”, in the test with Type I procollagen, the “ability to increase the concentration of procollagen in vitro” value is listed as “surprisingly higher than all the other products tested”.

In the case of “SA1-III: C-terminal peptide fragment 409-418 of the serpin A1 molecule, positive control (MGKVVNPTQK)”, the “levels of extracellular collagen” value in the test with extracellular collagen is on record as “increased levels of extracellular collagen”.
